Consider 4 molecules from ChEMBL document CHEMBL1138702, “Determination of the free radical scavenging activity of dihydropyran-2,4-diones” (Bioorg Med Chem Lett, 2004).

Assay [1] is described as follows: Concentration required to decrease the initial concentration of 2,2-diphenyl-1-picrylhydrazyl (DPPH) by 50% after 60 min.
A short description of assay [2]: Antioxidant ability determined by the parameter antiradical power that is related to the factor EC50.

SMILES strings stand for the structures. pEC50: −log10 of the molar value.

Take `C/C=C/C1CC(=O)CC(=O)O1` (stereo not drawn): the pEC50 (usually the negative decadic logarithm of the EC50, by convention in mol/L) in assay [1] is 2.84. In assay [2], the ARP is 0.7 m/M.
The matching figures for `COc1ccc(C2CC(=O)CC(=O)O2)cc1` (stereo not drawn): 2.12 and 0.13 m/M.
The matching figures for `COc1ccc(C2CC(=O)CC(=O)O2)cc1OC` (stereo not drawn): 2.15 and 0.14 m/M.
The matching figures for `O=C1CC(=O)OC(c2ccccc2)C1` (stereo not drawn): 2.85 and 0.71 m/M.
